Test results from ChEMBL document CHEMBL4177521, “Therapeutic Potential of Fatty Acid Amide Hydrolase, Monoacylglycerol Lipase, and N-Acylethanolamine Acid Amidase Inhibitors” (J Med Chem, 2017).
pIC50, pKi: −log10 of the molar value.

Legend:
[1] = target: T1, Fatty-acid amide hydrolase 1 (Rattus norvegicus, UniProt P97612); test: Inhibition of FAAH in Wistar rat brain membranes using [3H]-anandamide as substrate preincubated for 10 mins followed by substrate addition measured after 4 mins by liquid scintillation counting method; assay type: cell membranes, Membrane
T1 sequence (P97612 whole entry): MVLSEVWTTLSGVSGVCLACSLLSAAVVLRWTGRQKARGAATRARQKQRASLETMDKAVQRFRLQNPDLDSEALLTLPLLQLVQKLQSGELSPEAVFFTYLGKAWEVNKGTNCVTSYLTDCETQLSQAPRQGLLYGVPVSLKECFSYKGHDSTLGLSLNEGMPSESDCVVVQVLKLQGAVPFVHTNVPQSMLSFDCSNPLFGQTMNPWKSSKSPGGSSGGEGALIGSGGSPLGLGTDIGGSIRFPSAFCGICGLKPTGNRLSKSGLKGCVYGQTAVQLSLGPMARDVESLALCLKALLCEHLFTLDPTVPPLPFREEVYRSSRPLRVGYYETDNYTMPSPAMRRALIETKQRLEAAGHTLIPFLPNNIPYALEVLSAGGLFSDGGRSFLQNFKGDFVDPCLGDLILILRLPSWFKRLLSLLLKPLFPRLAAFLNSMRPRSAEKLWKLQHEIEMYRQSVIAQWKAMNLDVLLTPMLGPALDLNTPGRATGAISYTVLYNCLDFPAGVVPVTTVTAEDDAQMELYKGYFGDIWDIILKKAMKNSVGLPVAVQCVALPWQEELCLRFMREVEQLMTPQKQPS

[2] = target: T1, Fatty-acid amide hydrolase 1; test: Inhibition of Sprague-Dawley rat brain FAAH preincubated for 10 mins followed by [3H]-anandamide substrate addition after 30 mins by liquid scintillation counting method
Monoglyceride lipase [3] = target: T2, Monoglyceride lipase (Rattus norvegicus, UniProt Q8R431); test: Inhibition of rat MAGL
T2 sequence (Q8R431 whole entry): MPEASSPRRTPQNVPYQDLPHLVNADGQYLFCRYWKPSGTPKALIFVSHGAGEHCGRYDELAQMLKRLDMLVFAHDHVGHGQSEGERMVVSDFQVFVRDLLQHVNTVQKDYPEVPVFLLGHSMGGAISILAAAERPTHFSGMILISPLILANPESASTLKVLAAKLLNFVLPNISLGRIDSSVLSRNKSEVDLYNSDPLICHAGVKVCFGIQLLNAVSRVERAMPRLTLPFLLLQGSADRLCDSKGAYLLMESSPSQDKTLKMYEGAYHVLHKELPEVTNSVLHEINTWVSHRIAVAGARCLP

Monoglyceride lipase [4] = target: T3, Monoglyceride lipase (Mus musculus, UniProt O35678); test: Inhibition of mouse MAGL
T3 sequence (O35678 whole entry): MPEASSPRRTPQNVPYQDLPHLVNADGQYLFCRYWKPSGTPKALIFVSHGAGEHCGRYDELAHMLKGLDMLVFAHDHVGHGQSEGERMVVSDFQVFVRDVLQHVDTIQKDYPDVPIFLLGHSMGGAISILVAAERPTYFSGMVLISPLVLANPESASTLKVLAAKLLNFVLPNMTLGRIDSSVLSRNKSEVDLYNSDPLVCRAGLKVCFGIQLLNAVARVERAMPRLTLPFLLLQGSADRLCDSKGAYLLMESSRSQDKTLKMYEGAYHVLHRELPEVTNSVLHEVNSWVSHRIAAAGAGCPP

[5] = target: T4, N-acylethanolamine-hydrolyzing acid amidase (Homo sapiens, UniProt Q02083); test: Inhibition of recombinant human NAAA expressed in HEK293 cells preincubated for 10 mins followed by PAMCA substrate addition after 30 mins by fluorescence assay; assay type: cell-based
T4 sequence (Q02083 whole entry): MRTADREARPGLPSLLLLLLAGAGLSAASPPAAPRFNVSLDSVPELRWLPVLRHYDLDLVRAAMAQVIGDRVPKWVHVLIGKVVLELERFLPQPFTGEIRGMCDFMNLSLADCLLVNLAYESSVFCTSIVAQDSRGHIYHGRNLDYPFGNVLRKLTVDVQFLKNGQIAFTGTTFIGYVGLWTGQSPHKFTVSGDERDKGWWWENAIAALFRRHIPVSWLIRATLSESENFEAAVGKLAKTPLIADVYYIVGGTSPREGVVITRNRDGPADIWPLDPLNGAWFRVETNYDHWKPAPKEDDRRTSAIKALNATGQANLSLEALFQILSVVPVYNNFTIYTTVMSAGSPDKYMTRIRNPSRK

[6] = target: T1, Fatty-acid amide hydrolase 1; test: Inhibition of rat brain microsomal FAAH using N-(2-hydroxyethyl)-4-pyren-1-yl-butanamide as substrate after 60 mins by RP HPLC based fluorescence assay
Monoglyceride lipase [7] = target: T2, Monoglyceride lipase; test: Inhibition of recombinant rat MAGL expressed in Escherichia coli using 2-AG as substrate
[8] = target: T1, Fatty-acid amide hydrolase 1; test: Inhibition of rat FAAH assessed as reduction in [14C]oleamide conversion to oleic acid by Lineweaver-Burk plot analysis
Monoglyceride lipase [9] = target: T2, Monoglyceride lipase; test: Inhibition of rat MAGL preincubated for 30 mins followed by FP-Rh addition after 30 mins by gel-based ABPP assay
Monoglyceride lipase [10] = target: T3, Monoglyceride lipase; test: Inhibition of mouse MAGL preincubated for 30 mins followed by FP-Rh addition after 30 mins by gel-based ABPP assay
Monoglyceride lipase [11] = target: T2, Monoglyceride lipase; test: Inhibition of recombinant rat N-terminal histidine tagged MAGL expressed in Escherichia coli Rosetta 2 (DE3) pLysS cells preincubated for 10 mins followed by 2-OG substrate addition after 10 mins by LC/MS analysis
[12] = target: T4, N-acylethanolamine-hydrolyzing acid amidase; test: Time dependent inhibition of recombinant human NAAA expressed in HEK293 cells by liquid scintillation counting method; assay type: cell-based
[13] = target: T4, N-acylethanolamine-hydrolyzing acid amidase; test: Time dependent inhibition of recombinant human NAAA expressed in HEK293 cell membranes using [14C]-PEA as substrate by liquid scintillation counting method
[14] = target: T5, Fatty-acid amide hydrolase 2 (Homo sapiens, UniProt Q6GMR7); test: Inhibition of recombinant human N-terminal FLAG-tagged/C-terminal Myc-His6 tagged FAAH2 (32 to 579 residues) expressed in COS7 cell membranes; assay type: cell-based
T5 sequence (Q6GMR7 whole entry): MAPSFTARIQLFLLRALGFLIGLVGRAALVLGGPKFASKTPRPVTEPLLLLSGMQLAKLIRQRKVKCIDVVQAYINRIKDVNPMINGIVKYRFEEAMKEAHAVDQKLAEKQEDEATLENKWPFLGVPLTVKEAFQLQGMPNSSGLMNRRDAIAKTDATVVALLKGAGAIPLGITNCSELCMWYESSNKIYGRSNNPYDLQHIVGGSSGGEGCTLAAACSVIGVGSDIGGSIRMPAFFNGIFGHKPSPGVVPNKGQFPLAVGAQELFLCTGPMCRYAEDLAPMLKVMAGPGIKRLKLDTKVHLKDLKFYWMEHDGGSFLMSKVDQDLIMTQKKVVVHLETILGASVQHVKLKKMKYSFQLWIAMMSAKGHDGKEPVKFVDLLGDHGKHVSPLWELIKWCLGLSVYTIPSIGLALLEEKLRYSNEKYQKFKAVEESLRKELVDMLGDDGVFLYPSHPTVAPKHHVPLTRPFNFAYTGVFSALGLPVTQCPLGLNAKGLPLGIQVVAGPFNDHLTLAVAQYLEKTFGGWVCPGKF

Monoglyceride lipase [15] = target: T2, Monoglyceride lipase; test: Inhibition of rat cerebellar membranes MAGL-like activity preincubated for 30 mins followed by 2-AG substrate addition after 90 mins by HPLC analysis; set-up: species or system Cerebellum, Membrane
Monoglyceride lipase [16] = target: T6, Monoglyceride lipase (Homo sapiens, UniProt Q99685); test: Inhibition of recombinant human N-terminal His6-tagged and C-terminal Strep-tagged MAGL expressed in Escherichia coli Rosetta using [3H]2-OG as substrate after 10 mins by liquid scintillation counting method
T6 sequence (Q99685 whole entry): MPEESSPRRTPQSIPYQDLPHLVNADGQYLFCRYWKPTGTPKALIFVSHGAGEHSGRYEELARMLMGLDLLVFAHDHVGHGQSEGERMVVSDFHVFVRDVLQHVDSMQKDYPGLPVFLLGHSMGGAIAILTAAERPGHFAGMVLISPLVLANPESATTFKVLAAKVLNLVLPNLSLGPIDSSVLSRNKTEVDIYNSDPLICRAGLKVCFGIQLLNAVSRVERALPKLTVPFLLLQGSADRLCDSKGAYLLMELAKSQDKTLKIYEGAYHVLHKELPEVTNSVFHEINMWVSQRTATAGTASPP

SMILES: O=C(NC1CCCCC1)Oc1ccc(O)c(-c2ccccc2)c1
- pIC50 [1]: 7.52

SMILES: COc1ccc(Cn2cc(CNC(=O)OCc3cn(Cc4cccc(OC)c4)nn3)nn2)cc1
- pIC50 [2]: 8.24

SMILES: O=C(N1CCN(C(c2ccc(F)cc2)c2ccc(F)cc2)CC1)n1cncn1
- pIC50 (Monoglyceride lipase [3]): 8.96
- pIC50 (Monoglyceride lipase [4]): 9.66

SMILES: O=C(Oc1ccc([N+](=O)[O-])cc1)N1CCN(C(c2ccc(F)cc2)c2ccc(F)cc2)CC1
- pIC50 (Monoglyceride lipase [3]): 5.74
- pIC50 (Monoglyceride lipase [4]): 6.55

SMILES: O=C(CCCCCCC1CCCCC1)N[C@H]1CNC1=O
- pIC50 [5]: 6.55

SMILES: O=C(NCCCCCCCn1nnc(-c2ccccc2)n1)Oc1ccccc1
- pIC50 [6]: 7.09

SMILES: CC(C)=CCC[C@@H](C)[C@@H]1CCC[C@]2(C)C3=C(CC[C@@]12C)[C@@]1(C)CC[C@H](O)C(C)(C)[C@@H]1CC3
- pIC50 (Monoglyceride lipase [7]): 6.50

SMILES: O=C(CCCCCCCc1ccccc1)c1nc2ncccc2o1
- pKi [8]: 9.41

SMILES: O=C(OC(C(F)(F)F)C(F)(F)F)N1CCC(C(O)(c2ccc3c(c2)OCO3)c2ccc3c(c2)OCO3)CC1
- pIC50 (Monoglyceride lipase [9]): 7.37
- pIC50 (Monoglyceride lipase [10]): 7.82

SMILES: CCCCCCCCn1sc2ccccc2c1=O
- pIC50 (Monoglyceride lipase [11]): 7.70

SMILES: O=C(N1CCN(C(c2ccccc2)c2ccccc2)CC1)n1ccnc1
- pIC50 (Monoglyceride lipase [3]): 5.32
- pIC50 (Monoglyceride lipase [4]): 5.59

SMILES: CC(=O)Oc1cccc2c1C(=O)c1c(OC(C)=O)cc(C(=O)O)cc1C2=O [DIACEREIN]
- pIC50 [12]: 5.14 to 6.15
- pIC50 [13]: 5.14 to 6.15

SMILES: O=C(NC1CCCCC1)OCc1ncn(Cc2ccccc2)n1
- pIC50 [2]: 4.29

SMILES: O=C(CCCCCCc1ccccc1)c1ncc(-c2ccccn2)o1
- pIC50 [14]: 7.87

SMILES: O=C(NCCCCCCn1nnc(-c2cccc(Cl)c2)n1)Oc1ccccc1
- pIC50 [6]: 6.70

SMILES: CCCCCCCC/C=C\CCCCCCCCn1sccc1=O
- pIC50 (Monoglyceride lipase [11]): 7.37

SMILES: CCN1C(=O)C=CC1=O [N-ETHYLMALEIMIDE]
- pIC50 (Monoglyceride lipase [15]): 4.28

SMILES: CC(C)(C)[C@@H]1OC(=O)[C@@H]1NC(=O)OCCCCCc1ccccc1
- pIC50 [5]: 6.52

SMILES: CCCCCCCCCC(=O)c1nc2ncccc2o1
- pKi [8]: 9.12

SMILES: CCCCCCCCCC(=O)N[C@H]1CNC1=O
- pIC50 ([5]; hek293): 6.62

SMILES: c1ccc(SSc2ccccc2)cc1
- pIC50 (Monoglyceride lipase [16]): 5.80

SMILES: O=C(NC1CCCCC1)Oc1cccc(-c2ccccc2)c1
- pIC50 [1]: 7.59

SMILES: O=C(N1CCN(C(c2ccccc2)c2ccccc2)CC1)n1cncn1
- pIC50 (Monoglyceride lipase [3]): 9.23
- pIC50 (Monoglyceride lipase [4]): 9.51
